Like-named read-outs stand apart in the source and are kept apart here. Values belong to the compound of their own block, whether it stands above or below them.
Columns and labels:
[1] = format: physicochemical
[2] = tested on: glutamate-induced 45Ca2+ uptake into synaptosomes of rat brain cortex; test: Effect on glutamate-induced 45Ca2+ uptake into synaptosomes of rat brain cortex; format: biochemical, Wistar rats; settings: for Percentage 45Ca2+ of Control (Control – 100%): 200 μM glutamate, 5 min, 37 °C

- mole fraction solubility (x) ([1]; 1-octanol, 293.15 K): 2.51 x · 10^4
- A, parameter of the correlation equation lnx=A-B/T ([1]; 1-octanol, 293.15–313.15 K): 3.65 ± 0.15
- B, parameter of the correlation equation lnx=A-B/T ([1]; 1-octanol, 293.15–313.15 K): 3501 ± 46
- mole fraction solubility (x) ([1]; 1-octanol, 298.15 K): 3.01 x · 10^4
- ΔGsol0, standard molar dissolution Gibbs energy ([1]; 1-octanol, 298.15 K): 4.8 kcal/mol
- ΔHsol0, standard molar dissolution enthalpy ([1]; 1-octanol, 298.15 K): 6.96 kcal/mol
- ΔSsol0, standard molar dissolution entropy ([1]; 1-octanol, 298.15 K): 30.2 J/mol⋅K
- mole fraction solubility (x) ([1]; 1-octanol, 303.15 K): 3.68 x · 10^4
- mole fraction solubility (x) ([1]; 1-octanol, 308.15 K): 4.39 x · 10^4
- mole fraction solubility (x) ([1]; 1-octanol, 313.15 K): 5.30 x · 10^4
- mole fraction solubility (x) ([1]; Buffer pH 7.4, 293.15 K): 8.34 x · 10^6
- A, parameter of the correlation equation lnx=A-B/T ([1]; Buffer pH 7.4, 293.15–313.15 K): −2.96 ± 0.09
- B, parameter of the correlation equation lnx=A-B/T ([1]; Buffer pH 7.4, 293.15–313.15 K): 2558 ± 27
- mole fraction solubility (x) ([1]; Buffer pH 7.4, 298.15 K): 9.60 x · 10^6
- ΔGsol0, standard molar dissolution Gibbs energy ([1]; Buffer pH 7.4, 298.15 K): 6.84 kcal/mol
- ΔHsol0, standard molar dissolution enthalpy ([1]; Buffer pH 7.4, 298.15 K): 5.09 kcal/mol
- ΔSsol0, standard molar dissolution entropy ([1]; Buffer pH 7.4, 298.15 K): -24.6 J/mol⋅K
- mole fraction solubility (x) ([1]; Buffer pH 7.4, 303.15 K): 11.11 x · 10^6
- mole fraction solubility (x) ([1]; Buffer pH 7.4, 308.15 K): 12.66 x · 10^6
- mole fraction solubility (x) ([1]; Buffer pH 7.4, 313.15 K): 14.60 x · 10^6
- mole fraction solubility (x) ([1]; Hexane, 293.15 K): 3.85 x · 10^4
- A, parameter of the correlation equation lnx=A-B/T ([1]; Hexane, 293.15–313.15 K): 1.09 ± 0.1
- B, parameter of the correlation equation lnx=A-B/T ([1]; Hexane, 293.15–313.15 K): 2624 ± 30
- mole fraction solubility (x) ([1]; Hexane, 298.15 K): 4.47 x · 10^4
- ΔGsol0, standard molar dissolution Gibbs energy ([1]; Hexane, 298.15 K): 4.57 kcal/mol
- ΔHsol0, standard molar dissolution enthalpy ([1]; Hexane, 298.15 K): 5.21 kcal/mol
- ΔSsol0, standard molar dissolution entropy ([1]; Hexane, 298.15 K): 9.1 J/mol⋅K
- mole fraction solubility (x) ([1]; Hexane, 303.15 K): 5.11 x · 10^4
- mole fraction solubility (x) ([1]; Hexane, 308.15 K): 5.96 x · 10^4
- mole fraction solubility (x) ([1]; Hexane, 313.15 K): 6.81 x · 10^4
Structure (SMILES): CN1CCc2c(c3cc(F)ccc3n2CCc2n[nH]c(=S)n2C)C1 [Compound IV, 5-[2-(8-Fluoro-2-methyl-1,2,3,4-tetrahydropyrido[4,3-b]indol-5-yl)ethyl]-4-methyl-2,4-dihydro[1,2,4]triazole-3-thione]
- Percentage 45Ca2+ of Control (Control – 100%) ([2]; compound 0.01 μM): 102.0 ± 9.8%
- Percentage 45Ca2+ of Control (Control – 100%) ([2]; compound 0.1 μM): 78.7 ± 10.3%
- Percentage 45Ca2+ of Control (Control – 100%) ([2]; compound 0.5 μM): 78.7 ± 8.0%
- Percentage 45Ca2+ of Control (Control – 100%) ([2]; compound 1 μM): 83.2 ± 10.9%
- Percentage 45Ca2+ of Control (Control – 100%) ([2]; compound 5 μM): 94.7 ± 8.5%
- Percentage 45Ca2+ of Control (Control – 100%) ([2]; compound 10 μM): 93.4 ± 6.9%
- Percentage 45Ca2+ of Control (Control – 100%) ([2]; compound 50 μM): 96.9 ± 6.0%
- Percentage 45Ca2+ of Control (Control – 100%) ([2]; compound 100 μM): 87.1 ± 11.5%
- inhibition of glutamate-induced calcium ion uptake ([2]; concentration of 1 μM): ~17%
- effect on glutamate-induced calcium ion uptake, in words ([2]; concentration of 0.1–1 μM): can act as an inhibitor
- effect on glutamate-induced calcium ion uptake, in words ([2]; concentration of 5–100 μM): had no effect
- overall inhibiting activity on calcium ion uptake, in words ([2]; whole concentration range 0.01–100 μM): weak inhibitors of calcium ion uptake

Structure (SMILES): Cc1ccc2c(c1)c1c(n2CCc2ccc(C)nc2)CCN(C)C1 [Dimebon, reference compound]
- Percentage 45Ca2+ of Control (Control – 100%) ([2]; compound 0.1 μM): 120.5 ± 3.3%
- Percentage 45Ca2+ of Control (Control – 100%) ([2]; compound 0.5 μM): 64.4 ± 12.4%
- Percentage 45Ca2+ of Control (Control – 100%) ([2]; compound 1 μM): 61.3 ± 8.1%
- Percentage 45Ca2+ of Control (Control – 100%) ([2]; compound 5 μM): 83.2 ± 4.1%
- Percentage 45Ca2+ of Control (Control – 100%) ([2]; compound 10 μM): 89.3 ± 1.2%
- Percentage 45Ca2+ of Control (Control – 100%) ([2]; compound 50 μM): 98.7 ± 8.8%
- Percentage 45Ca2+ of Control (Control – 100%) ([2]; compound 100 μM): 132.0 ± 2.9%

Reference: article PMC6128713 (Saudi Pharmaceutical Journal : SPJ, 2018)
